Assay results as given in patent publication US20230257396A1, “MACROCYCLES AND THEIR USE” (BLOSSOMHILL THERAPEUTICS, INC., priority 2020, published 2023).

Legend:
Test in all cases: KINOMEscan kinase binding assay (Eurofins/DiscoveRx), % Ctrl
Conditions in all cases: 1 μM
kinases [1] = biological target: T1, kinases (Homo sapiens, UniProt P00519, H396P)
T1 construct: purchased Eurofins/DiscoveRx; host or cells: E. coli BL21-derived host (T7 phage display) for most kinases; HEK-293 for the rest
Outline: (§1)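 Competition binding, 1 h RT: phage-tagged or HEK-293-expressed DNA-tagged kinase + immobilized ligand + compound. Eluate kinase by qPCR. % Ctrl = (test − positive ctrl)/(negative ctrl − positive ctrl) × 100; lower means stronger binding.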

kinases [2] = biological target: T2, kinases (Homo sapiens, UniProt P00519, M351T)
T2 construct: purchased Eurofins/DiscoveRx; host or cells: E. coli BL21-derived host (T7 phage display) for most kinases; HEK-293 for the rest
Outline: as §1

kinases [3] = biological target: T3, kinases (Homo sapiens, UniProt P00533, DEL752-759)
T3 construct: purchased Eurofins/DiscoveRx; host or cells: E. coli BL21-derived host (T7 phage display) for most kinases; HEK-293 for the rest
Outline: as §1

kinases [4] = biological target: T4, kinases (Homo sapiens, UniProt P00533, L861Q)
T4 construct: purchased Eurofins/DiscoveRx; host or cells: E. coli BL21-derived host (T7 phage display) for most kinases; HEK-293 for the rest
Outline: as §1

kinases [5] = biological target: T5, kinases (Homo sapiens, UniProt P00533, T790M)
T5 construct: purchased Eurofins/DiscoveRx; host or cells: E. coli BL21-derived host (T7 phage display) for most kinases; HEK-293 for the rest
Outline: as §1

kinases [6] = biological target: T6, kinases (Homo sapiens, UniProt P07949, M918T)
T6 construct: purchased Eurofins/DiscoveRx; host or cells: E. coli BL21-derived host (T7 phage display) for most kinases; HEK-293 for the rest
T6 sequence (P07949 29-1114 M918T): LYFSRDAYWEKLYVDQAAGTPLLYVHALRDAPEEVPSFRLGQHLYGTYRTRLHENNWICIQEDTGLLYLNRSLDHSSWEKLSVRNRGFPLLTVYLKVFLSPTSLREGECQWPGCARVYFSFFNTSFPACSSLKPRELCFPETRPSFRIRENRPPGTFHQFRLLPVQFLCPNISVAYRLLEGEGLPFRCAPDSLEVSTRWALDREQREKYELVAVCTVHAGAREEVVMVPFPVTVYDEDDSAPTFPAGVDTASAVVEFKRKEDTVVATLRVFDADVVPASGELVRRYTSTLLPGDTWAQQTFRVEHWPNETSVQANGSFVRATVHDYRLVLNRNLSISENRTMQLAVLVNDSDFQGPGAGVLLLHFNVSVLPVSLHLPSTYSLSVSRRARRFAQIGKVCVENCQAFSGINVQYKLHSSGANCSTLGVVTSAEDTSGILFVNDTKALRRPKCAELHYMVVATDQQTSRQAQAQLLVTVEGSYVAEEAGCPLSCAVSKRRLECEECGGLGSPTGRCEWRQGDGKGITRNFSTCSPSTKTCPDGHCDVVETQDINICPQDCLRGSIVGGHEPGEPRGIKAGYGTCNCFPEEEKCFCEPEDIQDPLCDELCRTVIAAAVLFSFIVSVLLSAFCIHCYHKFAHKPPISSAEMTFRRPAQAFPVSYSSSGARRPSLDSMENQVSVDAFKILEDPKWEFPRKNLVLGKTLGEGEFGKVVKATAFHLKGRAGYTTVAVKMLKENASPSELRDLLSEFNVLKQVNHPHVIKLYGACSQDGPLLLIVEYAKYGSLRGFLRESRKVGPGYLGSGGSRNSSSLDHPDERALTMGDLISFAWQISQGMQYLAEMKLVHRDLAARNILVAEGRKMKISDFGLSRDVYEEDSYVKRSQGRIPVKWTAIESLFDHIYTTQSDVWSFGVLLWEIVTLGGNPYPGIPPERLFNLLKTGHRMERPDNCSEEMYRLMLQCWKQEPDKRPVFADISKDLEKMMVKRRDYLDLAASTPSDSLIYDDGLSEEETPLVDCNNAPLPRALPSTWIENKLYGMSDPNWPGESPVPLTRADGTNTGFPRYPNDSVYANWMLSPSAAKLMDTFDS
Outline: as §1

kinases [7] = biological target: T7, kinases (Homo sapiens, UniProt P07949, V804L)
T7 construct: purchased Eurofins/DiscoveRx; host or cells: E. coli BL21-derived host (T7 phage display) for most kinases; HEK-293 for the rest
T7 sequence (P07949 29-1114 V804L): as the sequence (P07949 29-1114 M918T) above, with V776L, T890M counted along it
Outline: as §1

kinases [8] = biological target: T8, kinases (Homo sapiens, UniProt P07949, V804M)
T8 construct: purchased Eurofins/DiscoveRx; host or cells: E. coli BL21-derived host (T7 phage display) for most kinases; HEK-293 for the rest
T8 sequence (P07949 29-1114 V804M): as the sequence (P07949 29-1114 M918T) above, with V776M, T890M counted along it
Outline: as §1

kinases [9] = biological target: T9, kinases (Homo sapiens, UniProt P09619)
T9 construct: purchased Eurofins/DiscoveRx; host or cells: E. coli BL21-derived host (T7 phage display) for most kinases; HEK-293 for the rest
T9 sequence (P09619 33-1106): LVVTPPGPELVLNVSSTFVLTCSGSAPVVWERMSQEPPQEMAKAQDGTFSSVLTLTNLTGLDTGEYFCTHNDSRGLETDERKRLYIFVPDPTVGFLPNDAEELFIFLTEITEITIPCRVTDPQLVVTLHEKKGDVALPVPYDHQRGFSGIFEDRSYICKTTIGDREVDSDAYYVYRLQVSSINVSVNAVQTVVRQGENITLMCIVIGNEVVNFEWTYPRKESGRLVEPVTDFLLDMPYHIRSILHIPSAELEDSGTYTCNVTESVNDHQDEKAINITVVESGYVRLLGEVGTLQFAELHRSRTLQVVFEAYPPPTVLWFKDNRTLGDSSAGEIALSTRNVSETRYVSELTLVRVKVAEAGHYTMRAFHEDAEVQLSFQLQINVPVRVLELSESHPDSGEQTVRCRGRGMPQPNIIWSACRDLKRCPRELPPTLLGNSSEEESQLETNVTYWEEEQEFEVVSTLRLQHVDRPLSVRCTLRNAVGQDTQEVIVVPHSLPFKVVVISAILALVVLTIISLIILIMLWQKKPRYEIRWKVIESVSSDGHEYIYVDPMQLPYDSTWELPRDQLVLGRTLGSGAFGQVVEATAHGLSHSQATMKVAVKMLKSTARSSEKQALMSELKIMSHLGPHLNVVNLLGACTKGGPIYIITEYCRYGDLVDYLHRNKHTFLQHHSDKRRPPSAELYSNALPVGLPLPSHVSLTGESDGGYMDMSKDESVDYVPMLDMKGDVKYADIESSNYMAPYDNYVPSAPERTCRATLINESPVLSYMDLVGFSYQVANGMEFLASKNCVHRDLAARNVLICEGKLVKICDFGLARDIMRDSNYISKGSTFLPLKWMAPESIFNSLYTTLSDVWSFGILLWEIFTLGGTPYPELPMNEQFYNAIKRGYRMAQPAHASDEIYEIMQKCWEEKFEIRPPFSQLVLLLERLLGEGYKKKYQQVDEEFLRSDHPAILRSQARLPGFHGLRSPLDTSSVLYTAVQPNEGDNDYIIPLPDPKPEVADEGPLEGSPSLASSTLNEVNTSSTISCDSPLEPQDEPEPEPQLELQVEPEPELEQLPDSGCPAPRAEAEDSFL
Outline: as §1

kinases [10] = biological target: T10, kinases (Homo sapiens, UniProt P10721)
T10 construct: purchased Eurofins/DiscoveRx; host or cells: E. coli BL21-derived host (T7 phage display) for most kinases; HEK-293 for the rest
T10 sequence (P10721 26-976): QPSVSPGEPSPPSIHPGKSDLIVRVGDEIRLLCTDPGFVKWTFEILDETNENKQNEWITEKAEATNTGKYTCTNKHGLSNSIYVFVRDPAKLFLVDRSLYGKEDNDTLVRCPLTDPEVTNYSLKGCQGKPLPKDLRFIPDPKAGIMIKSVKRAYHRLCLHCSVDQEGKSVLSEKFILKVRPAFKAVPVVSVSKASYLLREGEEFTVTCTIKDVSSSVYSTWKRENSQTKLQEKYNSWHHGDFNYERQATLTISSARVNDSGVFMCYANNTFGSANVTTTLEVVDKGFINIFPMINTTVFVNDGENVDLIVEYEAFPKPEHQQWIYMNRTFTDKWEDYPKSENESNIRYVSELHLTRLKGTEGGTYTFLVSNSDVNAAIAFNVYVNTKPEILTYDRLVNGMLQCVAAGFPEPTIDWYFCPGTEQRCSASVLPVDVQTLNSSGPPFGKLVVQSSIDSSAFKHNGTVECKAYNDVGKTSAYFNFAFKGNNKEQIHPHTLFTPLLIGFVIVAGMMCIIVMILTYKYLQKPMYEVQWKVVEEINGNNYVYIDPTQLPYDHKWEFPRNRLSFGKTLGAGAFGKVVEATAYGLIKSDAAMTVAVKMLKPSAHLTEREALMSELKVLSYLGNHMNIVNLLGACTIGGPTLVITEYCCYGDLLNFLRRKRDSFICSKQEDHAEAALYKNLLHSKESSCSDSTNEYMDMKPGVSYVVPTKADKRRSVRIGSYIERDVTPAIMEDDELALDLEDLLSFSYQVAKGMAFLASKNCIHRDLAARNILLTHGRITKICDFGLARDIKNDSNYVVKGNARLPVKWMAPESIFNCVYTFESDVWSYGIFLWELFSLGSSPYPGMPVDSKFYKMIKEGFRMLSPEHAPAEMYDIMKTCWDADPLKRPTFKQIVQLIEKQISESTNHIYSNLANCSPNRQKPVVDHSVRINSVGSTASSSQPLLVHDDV
Outline: as §1

kinases [11] = biological target: T11, kinases (Homo sapiens, UniProt P10721, D816H)
T11 construct: purchased Eurofins/DiscoveRx; host or cells: E. coli BL21-derived host (T7 phage display) for most kinases; HEK-293 for the rest
T11 sequence (P10721 26-976 D816H): as the sequence (P10721 26-976) above, with D791H counted along it
Outline: as §1

kinases [12] = biological target: T12, kinases (Homo sapiens, UniProt P10721, V559D)
T12 construct: purchased Eurofins/DiscoveRx; host or cells: E. coli BL21-derived host (T7 phage display) for most kinases; HEK-293 for the rest
T12 sequence (P10721 26-976 V559D): as the sequence (P10721 26-976) above, with V534D counted along it
Outline: as §1

kinases [13] = biological target: T13, kinases (Homo sapiens, UniProt P35916)
T13 construct: purchased Eurofins/DiscoveRx; host or cells: E. coli BL21-derived host (T7 phage display) for most kinases; HEK-293 for the rest
T13 sequence (P35916 25-1363): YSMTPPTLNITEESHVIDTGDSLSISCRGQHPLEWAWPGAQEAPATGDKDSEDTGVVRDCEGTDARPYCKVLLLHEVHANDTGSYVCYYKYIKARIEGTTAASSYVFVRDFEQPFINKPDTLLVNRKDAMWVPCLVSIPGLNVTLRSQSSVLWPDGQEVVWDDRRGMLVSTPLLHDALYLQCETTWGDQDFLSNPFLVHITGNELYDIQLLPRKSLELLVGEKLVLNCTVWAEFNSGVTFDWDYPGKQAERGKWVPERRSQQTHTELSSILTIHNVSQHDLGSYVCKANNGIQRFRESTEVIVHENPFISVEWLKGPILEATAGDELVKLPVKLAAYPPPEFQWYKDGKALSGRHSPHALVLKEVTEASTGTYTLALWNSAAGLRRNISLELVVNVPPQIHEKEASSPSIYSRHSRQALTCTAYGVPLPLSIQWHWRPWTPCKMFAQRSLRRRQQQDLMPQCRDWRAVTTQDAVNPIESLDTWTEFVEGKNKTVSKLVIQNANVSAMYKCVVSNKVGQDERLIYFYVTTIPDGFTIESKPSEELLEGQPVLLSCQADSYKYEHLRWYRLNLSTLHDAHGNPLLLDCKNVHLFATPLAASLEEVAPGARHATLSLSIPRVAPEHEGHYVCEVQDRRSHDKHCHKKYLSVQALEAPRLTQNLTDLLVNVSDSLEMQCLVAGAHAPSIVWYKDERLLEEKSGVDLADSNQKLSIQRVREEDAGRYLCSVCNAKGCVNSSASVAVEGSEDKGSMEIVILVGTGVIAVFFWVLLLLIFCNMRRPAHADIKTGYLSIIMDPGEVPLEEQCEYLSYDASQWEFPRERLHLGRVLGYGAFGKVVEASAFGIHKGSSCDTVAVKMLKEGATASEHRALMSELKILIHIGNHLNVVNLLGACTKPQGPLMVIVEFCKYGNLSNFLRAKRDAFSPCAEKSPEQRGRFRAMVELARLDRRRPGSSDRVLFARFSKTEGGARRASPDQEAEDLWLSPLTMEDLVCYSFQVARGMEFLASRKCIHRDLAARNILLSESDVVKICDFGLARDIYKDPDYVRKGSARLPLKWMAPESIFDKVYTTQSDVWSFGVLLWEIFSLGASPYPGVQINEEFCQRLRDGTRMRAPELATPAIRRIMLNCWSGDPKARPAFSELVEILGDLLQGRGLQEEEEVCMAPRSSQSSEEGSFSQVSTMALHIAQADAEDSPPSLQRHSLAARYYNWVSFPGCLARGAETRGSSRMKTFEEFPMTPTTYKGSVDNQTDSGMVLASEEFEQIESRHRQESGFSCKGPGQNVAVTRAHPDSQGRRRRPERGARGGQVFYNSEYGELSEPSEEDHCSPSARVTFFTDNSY
Outline: as §1

kinases [14] = biological target: T14, kinases (Homo sapiens, UniProt P36888)
T14 construct: purchased Eurofins/DiscoveRx; host or cells: E. coli BL21-derived host (T7 phage display) for most kinases; HEK-293 for the rest
T14 sequence (P36888 27-993): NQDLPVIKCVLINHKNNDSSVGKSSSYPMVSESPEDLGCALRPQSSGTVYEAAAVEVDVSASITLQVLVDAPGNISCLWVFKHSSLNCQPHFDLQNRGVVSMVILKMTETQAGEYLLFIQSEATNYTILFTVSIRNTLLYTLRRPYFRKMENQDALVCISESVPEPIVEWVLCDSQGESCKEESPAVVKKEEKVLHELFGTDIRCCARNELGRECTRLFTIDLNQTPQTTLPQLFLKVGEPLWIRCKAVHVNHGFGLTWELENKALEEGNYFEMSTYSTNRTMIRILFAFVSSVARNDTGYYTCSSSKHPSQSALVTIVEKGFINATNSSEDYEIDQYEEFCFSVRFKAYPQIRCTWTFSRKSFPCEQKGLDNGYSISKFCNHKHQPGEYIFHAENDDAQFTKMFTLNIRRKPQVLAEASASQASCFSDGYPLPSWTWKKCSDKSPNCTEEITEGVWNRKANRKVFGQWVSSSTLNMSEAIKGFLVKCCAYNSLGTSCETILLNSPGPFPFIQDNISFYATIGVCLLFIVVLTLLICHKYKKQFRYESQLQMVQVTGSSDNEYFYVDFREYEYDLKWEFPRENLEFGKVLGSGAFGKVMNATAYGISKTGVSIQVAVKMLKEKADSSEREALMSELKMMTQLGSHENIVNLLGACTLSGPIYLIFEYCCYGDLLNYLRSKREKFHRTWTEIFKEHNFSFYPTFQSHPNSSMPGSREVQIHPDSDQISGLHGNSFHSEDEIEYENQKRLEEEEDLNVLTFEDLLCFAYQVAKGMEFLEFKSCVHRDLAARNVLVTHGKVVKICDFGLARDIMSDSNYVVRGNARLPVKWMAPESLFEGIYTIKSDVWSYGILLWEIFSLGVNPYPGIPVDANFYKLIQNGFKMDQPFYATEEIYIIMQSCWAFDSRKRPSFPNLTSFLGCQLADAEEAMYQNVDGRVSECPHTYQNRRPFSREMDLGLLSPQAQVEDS
Outline: as §1

kinases [15] = biological target: T15, kinases (Homo sapiens, UniProt P42684)
T15 construct: purchased Eurofins/DiscoveRx; host or cells: E. coli BL21-derived host (T7 phage display) for most kinases; HEK-293 for the rest
Outline: as §1

[16] = target ABL1(H396P)-nonphosphorylated
[17] = target ABL1(H396P)-phosphorylated
[18] = target ABL1(M351T)-phosphorylated

| % Ctrl, ABL1(H396P)-nonphosphorylated (kinases [1]; [16]) | % Ctrl, ABL1(H396P)-phosphorylated (kinases [1]; [17]) | % Ctrl, ABL1(M351T)-phosphorylated (kinases [2]; [18]) | % Ctrl, EGFR(S752-I759del) (kinases [3]; target EGFR(S752-I759del)) | % Ctrl, EGFR(L861Q) (kinases [4]; target EGFR(L861Q)) | % Ctrl, EGFR(T790M) (kinases [5]; target EGFR(T790M)) | % Ctrl, RET(M918T) (kinases [6]; target RET(M918T)) | % Ctrl, RET(V804L) (kinases [7]; target RET(V804L)) | % Ctrl, RET(V804M) (kinases [8]; target RET(V804M)) | % Ctrl, PDGFRB (kinases [9]; target PDGFRB) | % Ctrl, KIT-autoinhibited (kinases [10]; target KIT-autoinhibited) | % Ctrl, KIT (kinases [10]; target KIT) | % Ctrl, KIT(D816H) (kinases [11]; target KIT(D816H)) | % Ctrl, KIT(V559D) (kinases [12]; target KIT(V559D)) | % Ctrl, FLT4 (kinases [13]; target FLT4) | % Ctrl, FLT3-autoinhibited (kinases [14]; target FLT3-autoinhibited) | % Ctrl, FLT3 (kinases [14]; target FLT3) | % Ctrl, ABL2 (kinases [15]; target ABL2) | % Ctrl, ABL1(H396P)-nonphosphorylated (kinases [1]; ABL1(H396P)-nonphosphorylated) | % Ctrl, ABL1(H396P)-phosphorylated (kinases [1]; ABL1(H396P)-phosphorylated) | SMILES | further results |
| --- | --- | --- | --- | --- | --- | --- | --- | --- | --- | --- | --- | --- | --- | --- | --- | --- | --- | --- | --- | --- | --- |
| 100 % Ctrl | 100 % Ctrl | 94 % Ctrl | 100 % Ctrl | 69 % Ctrl | 86 % Ctrl | 90 % Ctrl | 77 % Ctrl | 68 % Ctrl | 96 % Ctrl | 100 % Ctrl | 97 % Ctrl | 87 % Ctrl | 88 % Ctrl | 95 % Ctrl | 82 % Ctrl | 71 % Ctrl | 95 % Ctrl |  |  | Cc1nn(C)c2c1-c1ccc3c(c1)/C(=C/c1[nH]ccc1C(=O)N(C)CCCO2)C(=O)N3 [Ex. 150, [3a(4)Z]-9,14,16-trimethyl-10,11,13,14-tetrahydro-2H-1,17-(ethanediylidene)pyrazolo[4,3-m]dipyrrolo[3,2-f:3′,4′-i][1,4]oxazacyclopentadecine-3,8(5H,9H)-dione] |  |
|  |  |  |  |  |  |  |  |  |  |  |  |  |  |  |  |  |  | 29 % Ctrl | 54 % Ctrl | CNC(=O)[C@H]1CN(C)C(=O)c2cc(C)[nH]c2/C=C2\C(=O)Nc3cc(Cl)c(cc32)OCCO1 [Ex. 135, [7R,16a(17)Z]-19-chloro-N,2,5-trimethyl-4,16-dioxo-4,5,6,7,9,10,15,16-octahydro-1H-12,14-(ethanediylidene)dipyrrolo[3,2-i:3′,4′-l][1,4,7]dioxazacyclopentadecine-7-carboxamide] | % Ctrl, ABL1(M351T)-phosphorylated (kinases [2]; ABL1(M351T)-phosphorylated): 48 % Ctrl; % Ctrl, EGFR(S752-I759del) (kinases [3]; EGFR(S752-I759del)): 92 % Ctrl; % Ctrl, EGFR(L861Q) (kinases [4]; EGFR(L861Q)): 86 % Ctrl; % Ctrl, EGFR(T790M) (kinases [5]; EGFR(T790M)): 94 % Ctrl; % Ctrl, RET(M918T) (kinases [6]; RET(M918T)): 36 % Ctrl; % Ctrl, RET(V804L) (kinases [7]; RET(V804L)): 60 % Ctrl; % Ctrl, RET(V804M) (kinases [8]; RET(V804M)): 77 % Ctrl; % Ctrl, PDGFRB (kinases [9]; PDGFRB): 80 % Ctrl; % Ctrl, KIT (kinases [10]; KIT): 55 % Ctrl; % Ctrl, KIT-autoinhibited (kinases [10]; KIT-autoinhibited): 82 % Ctrl; % Ctrl, KIT(D816H) (kinases [11]; KIT(D816H)): 80 % Ctrl; % Ctrl, KIT(V559D) (kinases [12]; KIT(V559D)): 45 % Ctrl; % Ctrl, FLT4 (kinases [13]; FLT4): 100 % Ctrl; % Ctrl, FLT3 (kinases [14]; FLT3): 57 % Ctrl; % Ctrl, FLT3-autoinhibited (kinases [14]; FLT3-autoinhibited): 89 % Ctrl; % Ctrl, ABL2 (kinases [15]; ABL2): 85 % Ctrl |
|  |  |  |  |  |  |  |  |  |  |  |  |  |  |  |  |  |  | 90 % Ctrl | 77 % Ctrl | Cc1cc2c([nH]1)/C=C1\C(=O)Nc3ccc(nc31)-c1ccccc1OCCCNC2=O [Ex.22, [3a(4)Z]-6-methyl-9,10,11,12-tetrahydro-1,18-(ethanediylidene)dipyrrolo[3,2-g:3′,4′-j][1,5,12]benzoxadiazacyclopentadecine-3,8(2H,5H)-dione] | % Ctrl, ABL1(M351T)-phosphorylated (kinases [2]; ABL1(M351T)-phosphorylated): 100 % Ctrl; % Ctrl, EGFR(S752-I759del) (kinases [3]; EGFR(S752-I759del)): 72 % Ctrl; % Ctrl, EGFR(L861Q) (kinases [4]; EGFR(L861Q)): 87 % Ctrl; % Ctrl, EGFR(T790M) (kinases [5]; EGFR(T790M)): 57 % Ctrl; % Ctrl, RET(M918T) (kinases [6]; RET(M918T)): 92 % Ctrl; % Ctrl, RET(V804L) (kinases [7]; RET(V804L)): 98 % Ctrl; % Ctrl, RET(V804M) (kinases [8]; RET(V804M)): 93 % Ctrl; % Ctrl, PDGFRB (kinases [9]; PDGFRB): 100 % Ctrl; % Ctrl, KIT (kinases [10]; KIT): 100 % Ctrl; % Ctrl, KIT-autoinhibited (kinases [10]; KIT-autoinhibited): 100 % Ctrl; % Ctrl, KIT(D816H) (kinases [11]; KIT(D816H)): 100 % Ctrl; % Ctrl, KIT(V559D) (kinases [12]; KIT(V559D)): 96 % Ctrl; % Ctrl, FLT4 (kinases [13]; FLT4): 92 % Ctrl; % Ctrl, FLT3 (kinases [14]; FLT3): 81 % Ctrl; % Ctrl, FLT3-autoinhibited (kinases [14]; FLT3-autoinhibited): 100 % Ctrl; % Ctrl, ABL2 (kinases [15]; ABL2): 95 % Ctrl |
| 0.8 % Ctrl | 16 % Ctrl | 9.5 % Ctrl | 100 % Ctrl | 43 % Ctrl | 83 % Ctrl | 1 % Ctrl | 6.1 % Ctrl | 41 % Ctrl | 0.5 % Ctrl | 14 % Ctrl | 0.8 % Ctrl | 27 % Ctrl | 0.3 % Ctrl | 11 % Ctrl | 26 % Ctrl | 1.6 % Ctrl | 35 % Ctrl |  |  | CN1CCSCCOc2cc3c(cc2Cl)NC(=O)/C3=C\c2[nH]ccc2C1=O [Ex. 153] |  |
